Laboratory results as given in paper PMC11005426 (mBio, 2024).

Molecular target: T1, ASFV topo II ATPase domain (African swine fever virus, UniProt A0A2X0THW2)
T1 construct: gene P1192R CDS
Settings: Mg2+; ATP-binding site; 0.5 mM AMPPNP, 5 mM MgCl2, HEPES pH 7.5

Q: Nc1ncnc2c1ncn2[C@@H]1O[C@H](COP(=O)(O)OP(=O)(O)NP(=O)(O)O)[C@@H](O)[C@H]1O [AMPPNP] was tested. Which “X-ray crystal structure, 2.20 A” value did it give?
A: The value was “crystal structure of the isolated ATPase domain from ASFV topo II in complex with AMPPNP”.
